In ChEMBL document CHEMBL1201862, “PubChem BioAssay data set” (2004):
Activity calls are given as the source filed them.

Columns and labels:
[1] = viability loss in HEK293 cells – cell-based, plate reader, cherry-picked samples, cytotoxicity control, dose response (AID 743446); format: functional
[2] = blockers of bursicon-stimulated LGR2 cAMP reporter – cell-based, HEK293, CRE-luciferase reporter, cherry pick, set 2, dose response (AID 743343); format: functional;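 note: transfected cells were stimulated with diluted bursicon conditioned medium after compound addition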
[3] = blockade of melanocortin 4 receptor signaling – cell-based, plate reader, cherry pick, counter-screen for LGR2 antagonist project, dose response (AID 743444); format: functional;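 note: transfected HEK 293 cells stimulated with alpha-MSH peptide; potency of inhibitors of the alpha-MSH evoked signal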
[4] = toxicity toward HepG2 liver cells – cell-based, plate reader, cherry-pick, antagonist series, cytotoxicity control, dose response (AID 743416); format: functional
[5] = target: T1, Fructose-bisphosphate aldolase (Mycobacterium tuberculosis, UniProt P9WQA3); experiment: Fluorescence-based biochemical high throughput dose response assay for inhibitors of the fructose-bisphosphate aldolase (FBA) of M. tuberculosis.; format: functional
T1 sequence (P9WQA3 whole entry): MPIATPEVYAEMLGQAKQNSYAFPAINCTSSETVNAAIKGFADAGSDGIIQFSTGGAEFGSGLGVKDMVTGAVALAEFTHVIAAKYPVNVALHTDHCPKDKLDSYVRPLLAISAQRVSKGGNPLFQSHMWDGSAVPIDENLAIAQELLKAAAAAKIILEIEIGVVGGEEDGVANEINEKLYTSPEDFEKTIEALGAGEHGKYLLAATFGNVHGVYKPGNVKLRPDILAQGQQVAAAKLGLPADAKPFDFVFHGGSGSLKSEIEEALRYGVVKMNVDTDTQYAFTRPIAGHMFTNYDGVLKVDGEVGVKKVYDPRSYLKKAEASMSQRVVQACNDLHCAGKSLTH

[6] = target: T2, fMet-Leu-Phe receptor (Homo sapiens, UniProt P21462); experiment: formyl peptide receptor binders – dose response (AID 519); format: functional
T2 sequence (P21462 whole entry): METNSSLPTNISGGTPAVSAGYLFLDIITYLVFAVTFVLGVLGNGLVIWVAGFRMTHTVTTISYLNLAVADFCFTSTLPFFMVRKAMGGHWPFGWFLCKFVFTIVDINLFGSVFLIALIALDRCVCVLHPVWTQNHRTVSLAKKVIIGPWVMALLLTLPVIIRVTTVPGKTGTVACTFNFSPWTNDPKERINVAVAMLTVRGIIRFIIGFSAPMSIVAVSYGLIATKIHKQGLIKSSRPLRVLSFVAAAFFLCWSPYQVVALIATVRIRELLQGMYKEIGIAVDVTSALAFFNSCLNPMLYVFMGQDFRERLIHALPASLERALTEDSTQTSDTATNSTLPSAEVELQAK

[7] = A549 cell cytotoxicity, dose response, cytotoxicity control, plate reader, cherry-pick, antagonist series (AID 743412); format: functional, cell-based
[8] = target: Paired box protein Pax-8 (Homo sapiens, UniProt Q06710); experiment: PAX8 transcriptional activity inhibition in RMG-I – RMG-I cells, luciferase, cherry-pick, dose response (AID 687027); format: functional, cell-based;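 note: luciferase reporter driven by Pax8 target thyroperoxidase promoter measured by SteadyGlo luminescence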
[9] = target: T3, RNA-editing ligase 1, mitochondrial (Trypanosoma brucei brucei, UniProt P86926); experiment: inhibition of trypanosome RNA editing ligase – biochemical, fluorescence, Trypanosoma brucei, dose response (AID 1117295); format: functional
T3 sequence (P86926 whole entry): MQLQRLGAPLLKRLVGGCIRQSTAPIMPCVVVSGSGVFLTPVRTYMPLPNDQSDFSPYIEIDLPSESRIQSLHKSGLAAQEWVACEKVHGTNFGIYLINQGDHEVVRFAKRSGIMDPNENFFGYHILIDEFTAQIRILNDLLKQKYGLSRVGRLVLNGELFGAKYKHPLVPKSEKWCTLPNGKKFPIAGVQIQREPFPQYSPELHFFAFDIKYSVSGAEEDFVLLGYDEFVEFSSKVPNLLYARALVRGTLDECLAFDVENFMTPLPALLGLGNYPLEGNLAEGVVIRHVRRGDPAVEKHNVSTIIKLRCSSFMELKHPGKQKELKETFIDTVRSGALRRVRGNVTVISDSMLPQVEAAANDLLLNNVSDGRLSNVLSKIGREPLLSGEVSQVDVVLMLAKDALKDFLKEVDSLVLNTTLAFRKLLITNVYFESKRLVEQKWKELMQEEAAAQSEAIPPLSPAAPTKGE

[10] = blockers of HIV-1 envelope-mediated cell-cell fusion – cherry-pick, dose response (AID 652057); format: functional, cell-based
[11] = blockers of HIV-1 ZM109 envelope-driven cell-cell fusion – HeLa effector, CEM target cells, luciferase, cherry-pick, dose response (AID 652058); format: functional, cell-based;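 note: luciferase signal from HIV-1 Env mediated cell-cell fusion of effector and target cells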
[12] = HIV-1 AD8 envelope cell-cell fusion blockers – cherry-pick, dose response (AID 652062); format: functional, cell-based;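 note: luciferase signal from cell-cell fusion driven by HIV-1 clade B AD8 Env; potency is for inhibitors of fusion seen as a drop in luminescence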
[13] = viability loss in CEM21 cells – cell-based, CellTiter-Glo luminescence, cherry-picked, cytotoxicity control for viral fusion inhibitor project, dose response (AID 652042); format: functional;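 note: potency for signal decrease meaning cytotoxicity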
[14] = target: Cytochrome P450 2C19 (Homo sapiens, UniProt P33261); experiment: Cytochrome panel assay with activity outcomes. Panel member name: p450-cyp2c19 Compounds with AC50 equal or less than 10 uM are considered active; format: functional; conditions: read-out: AC50
[15] = toxicity to human hepatoma HepG2 cells – cell-based, cherry-picked samples, cytotoxicity control, dose response (AID 1159577); format: functional
[16] = P. falciparum Dd2 growth inhibitors, dose response, SYBR Green, cherry-picked samples (AID 1159567); format: functional, cell-based
[17] = target: T4, Low molecular weight phosphotyrosine protein phosphatase (Homo sapiens, UniProt P24666); format: functional; conditions: read-out: IC50_Mean
T4 sequence (P24666 whole entry): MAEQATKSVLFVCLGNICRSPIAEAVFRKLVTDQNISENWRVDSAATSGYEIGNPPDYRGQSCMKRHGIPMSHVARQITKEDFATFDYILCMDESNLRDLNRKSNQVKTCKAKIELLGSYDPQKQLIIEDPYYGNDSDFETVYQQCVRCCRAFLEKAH

[18] = target: T4, Low molecular weight phosphotyrosine protein phosphatase; format: functional; conditions: read-out: IC50_Mean; remark: listed apart in the source
[19] = Counterscreen for activators of the function of SWI/SNF related, matrix associated, actin dependent regulator of chromatin, subfamily a, member 2 (SMARCA2, BRM): Luminescence-based cell-based high throughput dose response assay to identify non-selective compounds using the VP16 reporter assay.; format: functional
[20] = target: SWI/SNF-related matrix-associated actin-dependent regulator of chromatin subfamily A member 2 (Homo sapiens, UniProt P51531); experiment: Luminescence-based cell-based high throughput dose response assay to identify activators of the function of SWI/SNF related, matrix associated, actin dependent regulator of chromatin, subfamily a, member 2 (SMARCA2, BRM).; format: functional
Chain of SWI/SNF-related matrix-associated actin-dependent regulator of chromatin subfamily A member 2 (P51531 whole entry): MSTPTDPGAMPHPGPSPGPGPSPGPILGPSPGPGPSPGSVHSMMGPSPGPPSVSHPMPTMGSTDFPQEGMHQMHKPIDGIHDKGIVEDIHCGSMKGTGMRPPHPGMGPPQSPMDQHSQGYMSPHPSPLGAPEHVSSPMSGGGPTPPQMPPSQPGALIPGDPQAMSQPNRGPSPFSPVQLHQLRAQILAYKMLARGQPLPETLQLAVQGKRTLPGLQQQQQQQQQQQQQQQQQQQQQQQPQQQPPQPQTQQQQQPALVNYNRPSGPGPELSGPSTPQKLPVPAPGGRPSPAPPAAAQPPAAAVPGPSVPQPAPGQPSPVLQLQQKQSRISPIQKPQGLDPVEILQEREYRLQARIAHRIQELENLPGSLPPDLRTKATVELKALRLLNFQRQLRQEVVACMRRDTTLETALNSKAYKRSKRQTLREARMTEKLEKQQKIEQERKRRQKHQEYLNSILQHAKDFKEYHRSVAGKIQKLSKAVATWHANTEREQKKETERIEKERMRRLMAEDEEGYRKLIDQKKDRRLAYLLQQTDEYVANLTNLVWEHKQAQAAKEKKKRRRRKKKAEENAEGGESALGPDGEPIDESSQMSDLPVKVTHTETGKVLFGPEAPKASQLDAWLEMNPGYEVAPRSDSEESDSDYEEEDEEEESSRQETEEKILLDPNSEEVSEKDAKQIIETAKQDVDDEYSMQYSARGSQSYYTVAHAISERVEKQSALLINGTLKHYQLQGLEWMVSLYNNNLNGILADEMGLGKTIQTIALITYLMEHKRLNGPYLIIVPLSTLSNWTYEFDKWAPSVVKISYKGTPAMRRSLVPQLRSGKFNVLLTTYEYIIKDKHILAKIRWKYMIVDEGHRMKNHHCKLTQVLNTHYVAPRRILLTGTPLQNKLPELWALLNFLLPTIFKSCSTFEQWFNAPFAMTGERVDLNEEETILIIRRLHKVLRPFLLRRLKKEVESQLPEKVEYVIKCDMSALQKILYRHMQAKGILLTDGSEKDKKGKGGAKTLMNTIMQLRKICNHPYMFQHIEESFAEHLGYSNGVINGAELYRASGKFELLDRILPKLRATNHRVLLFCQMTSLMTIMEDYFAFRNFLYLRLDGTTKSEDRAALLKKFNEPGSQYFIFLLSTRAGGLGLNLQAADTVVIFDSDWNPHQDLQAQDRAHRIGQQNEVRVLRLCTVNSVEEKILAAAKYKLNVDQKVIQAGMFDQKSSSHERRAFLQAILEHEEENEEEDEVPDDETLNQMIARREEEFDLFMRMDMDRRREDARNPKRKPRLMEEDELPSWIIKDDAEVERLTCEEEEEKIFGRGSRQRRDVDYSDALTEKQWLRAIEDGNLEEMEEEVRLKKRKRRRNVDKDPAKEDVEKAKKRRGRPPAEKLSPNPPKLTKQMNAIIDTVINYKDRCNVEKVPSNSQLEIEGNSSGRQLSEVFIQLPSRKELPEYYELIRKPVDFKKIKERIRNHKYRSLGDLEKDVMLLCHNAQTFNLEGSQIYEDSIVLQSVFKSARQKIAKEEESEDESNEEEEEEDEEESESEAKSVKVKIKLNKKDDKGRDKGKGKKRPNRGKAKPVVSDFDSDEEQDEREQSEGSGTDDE

Chain of Cytochrome P450 2C19 (P33261 whole entry): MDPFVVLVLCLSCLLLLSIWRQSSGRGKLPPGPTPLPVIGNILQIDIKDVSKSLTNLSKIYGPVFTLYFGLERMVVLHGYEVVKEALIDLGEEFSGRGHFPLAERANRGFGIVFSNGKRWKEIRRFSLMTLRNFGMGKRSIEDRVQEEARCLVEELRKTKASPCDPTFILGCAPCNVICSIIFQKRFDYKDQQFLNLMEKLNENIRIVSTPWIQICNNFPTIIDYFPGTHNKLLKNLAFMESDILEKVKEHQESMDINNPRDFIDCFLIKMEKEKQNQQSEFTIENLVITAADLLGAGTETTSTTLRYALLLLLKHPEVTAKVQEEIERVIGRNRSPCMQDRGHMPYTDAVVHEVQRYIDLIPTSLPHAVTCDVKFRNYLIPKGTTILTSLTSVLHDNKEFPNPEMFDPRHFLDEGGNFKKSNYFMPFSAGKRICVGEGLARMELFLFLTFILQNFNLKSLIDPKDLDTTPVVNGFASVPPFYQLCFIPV
Chain of Paired box protein Pax-8 (Q06710 whole entry): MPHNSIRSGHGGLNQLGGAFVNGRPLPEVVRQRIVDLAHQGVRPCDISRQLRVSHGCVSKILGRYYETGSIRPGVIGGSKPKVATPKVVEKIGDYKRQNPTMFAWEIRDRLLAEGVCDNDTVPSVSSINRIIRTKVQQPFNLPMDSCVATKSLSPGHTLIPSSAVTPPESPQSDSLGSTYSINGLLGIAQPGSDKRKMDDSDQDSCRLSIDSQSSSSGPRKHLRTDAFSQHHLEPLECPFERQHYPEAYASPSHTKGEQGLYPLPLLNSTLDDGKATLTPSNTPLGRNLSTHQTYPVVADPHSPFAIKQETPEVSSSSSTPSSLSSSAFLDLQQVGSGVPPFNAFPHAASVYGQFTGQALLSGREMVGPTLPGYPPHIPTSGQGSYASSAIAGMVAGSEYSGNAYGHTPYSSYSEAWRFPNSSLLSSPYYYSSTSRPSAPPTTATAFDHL

## COc1ccc(-n2ncc3c(N4CCC(C)CC4)ncnc32)cc1
[1]
  AC50: > 52 µM (inactive)
[2]
  AC50: 11.6 µM (active)
[3]
  AC50: 19.3 µM (active)
[4]
  AC50: > 52 µM (inactive)

## CC(=O)N1CCN(C(=O)c2cc(-c3ccc(Cl)s3)nc3ccccc23)CC1
[5]
  IC50: 1.17 µM (active)

## COc1ccc(NC(=O)C(c2ccc(C)cc2)N(C)C(=O)c2cnccn2)cc1 (configuration not stated)
[6]
  Ki: > 66.7 µM (inactive)

## COc1ccc2c(CN3CCCC3)cc(=O)oc2c1
[5]
  IC50: 2.52 µM (active)

## Cn1nnnc1Sc1ncnc2scc(-c3ccc([N+](=O)[O-])cc3)c12
[1]
  AC50: 6.48 µM (active)
[2]
  AC50: 6.25 µM (active)
[3]
  AC50: 5.32 µM (active)
[4]
  AC50: 7.05 µM (active)
[7]
  AC50: 6.71 µM (active)
[8]
  AC50: 2.57 µM (active)

## COC(=O)C1=C(C)N(Cc2ccc(C(F)(F)F)cc2)C(NCc2ccccc2C(F)(F)F)=NC1c1ccccc1C(F)(F)F (configuration not stated)
[9]
  IC50: > 96.6 µM (inactive)

## COc1cccc(S(=O)(=O)N(C)C[C@H]2Oc3cc(C4=CCCC4)ccc3S(=O)(=O)N([C@@H](C)CO)C[C@H]2C)c1
[10]
  AC50: 1.87 µM (active)
[11]
  AC50: 1.62 µM (active)
[12]
  AC50: 3.01 µM (active)
[13]
  AC50: 64.2 µM (active)

## COc1ccc(C2C(C(=O)c3ccccc3)=C(O)C(=O)N2CC(C)O)c(OC)c1 (configuration not stated)
[6]
  Ki: 38.6 µM (inactive)
[14]
  AC50: 6.31 µM (inconclusive)

## CN(C)CC(=O)N1C[C@@H]2N[C@H](C1)[C@H]2c1ccc(/C=C/c2ccccc2)cc1
[15]
  AC50: 11.4 µM (active)
[16]
  AC50: 2.63 µM (active)

## CNc1nc(NC)c2c[nH]nc2n1
[17]
  IC50: 33 µM (inactive)
[18]
  IC50: 9.16 µM (active)

## COC(=O)C1=C(C)N(Cc2ccc(C(F)(F)F)cc2)C(NCc2ccccc2C(F)(F)F)=NC1c1ccccc1 (configuration not stated)
[9]
  IC50: > 96.6 µM (inactive)

## O=C(CNCc1c(F)cccc1F)N1CCC2(CC1)OCCO2
[19]
  EC50: > 91.3 µM (inactive)
[20]
  EC50: > 91.3 µM (inactive)
